Source: the METLIN SMRT retention time set (Domingo-Almenara et al. 2019)

Test: gradient 5% acetonitrile 3 min, to 50% in 2 min, to 85% in 15 min, held 3 min, 100 µL/min
Details: column: Zorbax Extend-C18 2.1 x 50 mm; eluents: water / acetonitrile, 0.1% formic acid
Outline: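 Retention time was recorded from adduct peaks, which were picked computationally and each inspected manually. Pure standards ran in mixtures of ~100 molecules on HPLC coupled to a quadrupole time-of-flight mass spectrometer, in positive and negative ionization mode, through a Zorbax Extend-C18 column (2.1 × 50 mm, 1.8 μm) at 100 μL/min. Eluents were water and acetonitrile, each with 0.1% formic acid.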

SMILES | RP-LC retention time [s]
Cc1cc(C)cc(NC(=O)C2CCN(S(C)(=O)=O)c3cc(C)ccc3O2)c1 (configuration not stated) | 900
CN(C)C(=O)c1ccc2c(c1)nc(CN(C)C(=O)Nc1ccc(Br)cc1F)n2C | 637
Cc1cc(C)cc(-c2nc(-c3cccc(-c4ccn[nH]4)c3)no2)c1 | 999
CC1(C(=O)NCc2ccccc2)CCCN(S(=O)(=O)c2ccccc2)C1 (configuration not stated) | 883
CSc1ncn(-c2nc(N(C)C)nc(N3CCCCC3)n2)n1 | 1090
CCn1c(=O)cc(OCC(=O)NCCN(C)Cc2ccccc2)c2ccccc21 | 617
Cc1ccc(-n2ccnc2SCc2nc(-c3cccc(C)c3)no2)cc1 | 1020
CN1C(=O)C(C)(C(=O)NC2CCCCC2)Oc2cccnc21 (configuration not stated) | 784
O=C(NC1CCCCC1)c1ccc2c(c1)N(Cc1ccccc1)C(=O)CO2 | 921
O=C(c1cc(C2CC2)[nH]n1)N1CCC(F)(F)C(COCC2CC2)C1 (configuration not stated) | 805
O=C(CC1CCCC1)N1CCC(N(Cc2cccnc2)C2CCOCC2)CC1 | 604
CCC(=O)NCCc1csc(C2CCCN(C(=O)C3CCC3)C2)n1 (configuration not stated) | 676
CCS(=O)(=O)N1CCc2nn(Cc3ccccc3)c(=O)n2CC1 | 687
COc1cccc(CN2CC(c3nc(CCOCc4ccccc4)no3)C2)c1 | 708
COc1ccc(CSc2nccc3c2ccn3CC(=O)N2CCN(c3ccc(F)cc3)CC2)cc1 | 777
CCc1nc(-c2cc(S(=O)(=O)NCC(=O)NC3CCCCC3)c(C)s2)no1 | 906
COc1ccc(CC(=O)NC(C)C(=O)Nc2nc3ccccc3[nH]2)c(Cl)c1 (configuration not stated) | 676
Cc1ccc(NS(=O)(=O)c2ccc(-c3c(C)noc3C)cc2)c(Cl)c1 | 1020
CCN(CC)c1ccc(NC(=O)C2CCCN(S(=O)(=O)c3cn(C(C)C)cn3)C2)c(C)c1 (configuration not stated) | 622
CCN(CC)CCCNC(=O)Cn1c2ccccc2c2cnn(C)c(=O)c21 | 596
CC(C)S(=O)(=O)Nc1ccc2c(c1)CN(C(=O)c1ccco1)CC2 | 685
COc1cccc(-c2nc(-c3ccc4c(c3)ncn4CCN3CCCCC3)no2)c1 | 657
O=C(O)CCCCC(CCSCc1ccccc1)SCc1ccccc1 (configuration not stated) | 670

SMILES | RP-LC retention time [s]
Cn1c(=O)n(C)c2cc(CNc3ccc(Cl)cc3)ccc21 | 892
Cn1c(=O)c(=O)n(C)c2cc(N3CCOCC3)c(NC(=O)c3ccco3)cc21 | 663
O=C1NC2(CCN(C(=O)Nc3cccc(C(F)(F)F)c3)CC2)N=C1c1ccccc1 | 902
CC(C)c1ccc(-c2ccnc3c(C(=O)NCCCc4ccco4)cnn23)cc1 | 1180
COCc1cc(=O)n(CC(=O)Nc2ccc(C)c(C)c2)c(N)n1 | 647
CCc1ccc2nc(Nc3ncc4c(n3)CC(c3ccc(F)cc3)CC4=O)nc(C)c2c1 (configuration not stated) | 835
Cc1sc2ccn(CC(C)C)c(=O)c2c1C(=O)NCc1cc(F)cc(F)c1 | 1070
COc1ccc(Nc2c(-c3nc(C)no3)cnc3nc(C)ccc23)cc1Cl | 736
CNC(=O)C1CCCN(c2nc3ncn(CC(=O)Nc4cc(F)cc(F)c4)c(=O)c3s2)C1 (configuration not stated) | 681
COC(=O)c1c(C)[nH]c(C(=O)N2CCCC(C(=O)N3CCN(c4cccc(Cl)c4)CC3)C2)c1C (configuration not stated) | 952
O=C(c1ccc2c(c1)OCO2)N(c1ccc(Br)cc1)C1C=CS(=O)(=O)C1 (configuration not stated) | 779
CCCOc1ccc(C2C(=O)N(C3CCC(C)CC3)CC(=O)N2Cc2ccco2)cc1OC (configuration not stated) | 1070
C#CCSc1n[nH]c(-c2ccco2)n1 | 719
Cn1nnc2c(N3CCN(C(=O)c4c(F)cccc4Cl)CC3)ncnc21 | 687
COCc1cc(=O)n(CC(=O)Nc2ccc(F)cc2C)c(N)n1 | 593
COc1cccc(NS(=O)(=O)c2cc3c(s2)CCN(C(=O)C2CC2)C3)c1 | 801
CC(C)=CCC/C(C)=C\C(N)=O | 816
Cc1ccccc1S(=O)(=O)N1CCC2(CC1)NCCN=C2NCc1ccc(Cl)cc1 | 741
COc1cc(C(CC(=O)N2CCCCCC2)N2Cc3ccccc3C2=O)cc(OC)c1OC (configuration not stated) | 797
CC1=C(c2ccc(C)c(C)c2)S(=O)(=O)N=C1N1CCCN(C(=O)NCC(C)C)CC1 | 853
CC(=O)Nc1cc(C(=O)NCCN(C)C)ccc1Sc1ccc(Cl)cc1 | 589
Cn1c(CN(c2ccc(F)cc2)S(C)(=O)=O)nnc1SCc1nnc(-c2ccccc2)o1 | 710
O=C(Nc1ccc(F)cc1F)C1CCCN(S(=O)(=O)c2c[nH]c(C(=O)N3CCCCCC3)c2)C1 (configuration not stated) | 897

SMILES | RP-LC retention time [s]
CCCNc1cc(N2CCC(CCC(=O)NCCc3cccs3)CC2)ncn1 | 662
CCOc1ccc(-c2[nH]ncc2CNS(=O)(=O)Cc2cc(F)cc(F)c2)cc1 | 845
CCOC(=O)CCC(=O)N1CCN(Cc2nc(C(C)(C)C)cs2)CC1 | 611
O=C(Nc1ccc2c(c1)OCCO2)C1CCN(C(=O)c2cccc(F)c2)CC1 | 697
CCCC(=O)Nc1ccc(CCc2nc3ccc(C(=O)NC4CC4)cc3[nH]2)cc1 | 599
CCn1cc(-c2ccc(Cl)cc2)cc1C(=O)NCCN(C)C | 702
CCCNC(=O)C1CCCN(c2ccc(SCC(=O)Nc3ccc(F)cc3F)nn2)C1 (configuration not stated) | 657
Cc1sc2ccn(C)c(=O)c2c1C(=O)N1CCN(c2ccc(F)cc2)CC1 | 746
O=C(Nc1ccccc1)c1cn2c(n1)CCCC2 | 577
CCOc1ccc(S(=O)(=O)N2CCC(C(=O)NC3CCCC3)CC2)cc1 | 632
O=C(NCc1nnc2n1CCCC2)c1ccc2c(c1)OCO2 | 1260
Cc1nc(Nc2ccc(Cl)cn2)sc1C(=O)NCCN1CCCCC1 | 637
O=C(c1ccccn1)N1CC(n2cc(COc3ccncc3)nn2)C1 | 566
O=C(Cc1cccs1)N1CCc2cc(-c3ccno3)ccc21 | 919
O=C(c1ccccc1)N1CCC(CCNS(=O)(=O)Cc2ccccc2)CC1 | 803
CC(C)c1nc(-n2cccc2)sc1C(=O)NCCc1ccccc1 | 1190
Cc1ccccc1C(=O)Nc1nc(-c2ccc3c(c2)NC(=O)CO3)c(C)s1 | 898
CC(C)Sc1ccc2nn(CC(=O)Nc3ccc(Br)cc3F)c(=O)n2n1 | 843
Cc1cc(C(=O)Nc2nc3c(C)cc(Cl)cc3s2)on1 | 985
CCOc1ccc(N2C(=O)C3N=NN(Cc4nc(-c5ccc(Cl)cc5)no4)C3C2=O)cc1 (configuration not stated) | 722
Cc1cccc(Cn2c(CN3CCC(C(=O)NC(C)C)CC3)cc3ccccc32)c1 | 737
COc1ccc(OC)c(NC(=O)COc2cc(C)nc(N3CCCC3)n2)c1 | 650
Cc1ccc(CNC(=O)c2ncn3c2C(=O)N(C2CC2)C(C)(C(=O)NCc2ccc(C)cc2)C3)cc1 (configuration not stated) | 832

SMILES | RP-LC retention time [s]
COc1ccc(F)cc1S(=O)(=O)N1C[C@@H]2C[C@H](NC(=O)c3cccs3)[C@H]1C2 | 834
Cc1cccc(Cn2cc(S(=O)(=O)N3CCOCC3)ccc2=O)c1 | 789
COC(=O)c1ncn2c1C(=O)N(c1cccc(C)c1C)C(C)(C(=O)NC1CCCC1)C2 (configuration not stated) | 734
Cc1ccc(-c2nc3ncc(C#N)c(N)n3n2)cc1 | 707
CCCc1noc(-c2ccc(-n3cnc(C(=O)NC4CCCCCC4)c3)nc2)n1 | 1070
Cc1ccc(Cl)c(NC(=O)C2CCc3nc(N4CCOCC4)ncc3C2)c1 (configuration not stated) | 865
O=S(=O)(NCC(c1cccnc1)c1c[nH]c2ccccc12)c1ccc2c(c1)CCCC2 (configuration not stated) | 790
Cc1ccc(CNC(=O)Cn2c(=O)c3cc(-c4cccs4)nn3c3ncccc32)cc1 | 868
COCC1(O)CCOC2(CCN(Cc3ccccc3C)CC2)C1 (configuration not stated) | 591
Nc1cc(C2CCN(S(=O)(=O)c3ccc(Cl)cc3)CC2)no1 | 826
COc1cccc(N2CC(NC(=O)c3ccccc3C(F)(F)F)CC2=O)c1 (configuration not stated) | 709
COc1ccc(-c2nnc(-c3ccc(Cl)c(S(=O)(=O)N(C)C)c3)o2)cc1OC | 904
O=C(NCCc1c[nH]c2ccccc12)C1CCN(c2ccncc2)CC1 | 610
CCOC(=O)c1ccc(NC(=O)C2CCCN(S(=O)(=O)c3cc(OC)ccc3OC)C2)cc1 (configuration not stated) | 975
COc1cccc2sc(NC(=O)Cc3ccc(Cl)s3)nc12 | 923
Cn1cnnc1SCC(=O)Nc1ccc(F)cc1 | 603
C#CC1(N2CCCCC2)CCCCC1 | 638
CCn1cc(S(=O)(=O)N2CCC(CCOc3ccccc3F)C2)cn1 (configuration not stated) | 948
Cc1ccc(C(=O)N2CCCC(COc3ccc(C(=O)N4CCCC4)cc3)C2)cc1C (configuration not stated) | 940
CC(C)(C)C(=O)N1CCN(c2ncccc2-c2nnc(C3CC3)o2)CC1 | 760
CCOC(=O)c1sc(NC(=O)c2ccc(Br)cc2F)nc1C | 986
Cc1nnc2ccc(NC3CCCC3)nn12 | 818
O=C1CC(c2noc(-c3cc(F)cc(F)c3)n2)CN1c1ccc(F)cc1 (configuration not stated) | 944
